Here are results for 14 compounds from patent EP2340832A1, “Morphinan-6-one compounds for the treatment or prevention of neurodegenerative diseases” (Universität Innsbruck, priority 2009, dated 2011).

Like-named read-outs stand apart in the source and are kept apart here.

Assay [1] has as its target T1, δ receptor (Rattus norvegicus, UniProt P33533).
T1 construct: Membrane fractions were prepared from Sprague-Dawley rat or guinea pig brains; from tissue; host or cells: Sprague-Dawley rat brain (without cerebella) membranes
Description: [35S]GTPγS functional assay, rat brain membranes, δ receptor. It is filed as biochemical, Sprague-Dawley rat. The protocol:
(§1) Membrane fractions were prepared from Sprague-Dawley rat or guinea pig brains as described above. To determine binding of [^35S]GTPyS, rat or guinea pig brain membranes (10 µg of protein) were incubated for 60 min at 30 °C in Tris-EGTA buffer (50 mM Tris-HCl buffer, 3 mM MgCl2, 1 mM EGTA, […], pH 7.4) containing 30 µM GDP, 0.05 nM [^35S]GTPyS and appropriate concentrations of the respective compounds according to the present invention in a final volume of 1 ml. The reaction was terminated by vacuum filtration through Whatman GF/B glass fibre filters. Filters were washed three times with ice-cold 50 mM Tris-HCI buffer (pH 7.4) and the bound radioactivity was measured by liquid scintillation counting (Beckman Coulter™ LS6500). Basal activity was determined by subtracting the non-specific binding (measured in the presence of 100 µM unlabelled GTPyS) from the total binding (measured in the absence of the compound).
(§2) Stimulation produced by the compound is given as percentage of the basal activity (given as 100%). Functional data, EC50 (nM; half maximal effective concentration) and maximal stimulation Emax (% stimulation over basal level; maximal effective concentration), were calculated by using nonlinear regression analysis and sigmoidal curve fitting GraphPad Prism (San Diego, CA, USA) program. The values are expressed as the mean ± S.E.M of at least 3 independent experiments, each performed in triplicate. Statistical analysis was carried out using SPSS software (SPSS Inc., Chicago, lL, USA) and the Student T-test was used to compare different assay conditions. A ρ value < 0.05 was considered statistically significant.
(GTPγS is a poorly hydrolysed GTP analogue; its binding reports G protein activation.)

The target in assay [2] is T2, µ opioid receptor (Rattus norvegicus, UniProt P33535). Description: [35S]GTPγS functional assay, rat brain membranes, µ receptor. It counts as biochemical, Sprague-Dawley rat. Also noted: Membrane fractions were prepared from Sprague-Dawley rat or guinea pig brains; from tissue; host or cells: Sprague-Dawley rat brain (without cerebella) membranes. The procedure:
as §1, §2

Assay [3] relates to extracellular ACh concentration in the nucleus accumbens. The conditions noted are these: for 0AUC120 min (% increase x min) Mean ± SEM: 0 to 120 min; for Increase in ACh release (Peak increase as % of basal output): nucleus accumbens.
Assay [4] has as its target σ receptors labelled by [^3H]DTG (σ1 + σ2). Description: Sigma receptor binding assay, [3H]DTG. As to conditions: read-out: IC50 ± SEM [^3H]DTG (σ1 + σ2); guinea pig brain membranes; compounds 1-5 tested up to 10 µM. The protocol: (§3) Filters were washed three times with 5 ml of ice-cold 10 mM Tris-HCI buffer (pH 8). The bound radioactivity was measured by liquid scintillation counting (Beckman Coulter™ LS6500). […] The values are expressed as the mean ± S.E.M of 2 - 4 independent experiments, each performed in duplicate.

The target of assay [5] is T3, σ receptors labelled by [^3H](+)-pentazocine (σ1) (Cavia porcellus, UniProt Q60492).
T3 construct: from tissue; host or cells: guinea pig brain membranes
T3 sequence (Q60492 whole entry): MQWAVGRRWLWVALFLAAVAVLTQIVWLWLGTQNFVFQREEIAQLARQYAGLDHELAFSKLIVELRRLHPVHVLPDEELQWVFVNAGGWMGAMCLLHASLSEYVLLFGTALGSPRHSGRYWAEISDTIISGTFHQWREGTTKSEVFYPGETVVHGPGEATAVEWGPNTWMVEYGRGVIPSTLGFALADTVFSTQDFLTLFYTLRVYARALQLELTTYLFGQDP
Description: Sigma receptor binding assay, [3H](+)-pentazocine. Also noted: species or system guinea pig. The procedure: as §3

The target of assay [6] is T2, µ opioid receptor. Description: Opioid receptor binding assay, [3H]DAMGO, rat brain membranes. Also noted: Membrane fractions were prepared from Sprague-Dawley rat or guinea pig brains; from tissue; host or cells: Sprague-Dawley rat brain (without cerebella) membranes; species or system Sprague-Dawley rat. The protocol:
(§4) Briefly, brains without cerebella were homogenised on ice in 5 volumes of ice-cold 50 mM Tris-HCI buffer (pH 7.4) and diluted in 30 volumes of the same buffer. After centrifugation at 40,000 x g for 20 min at 4°C, the pellets were resuspended in 30 volumes of Tris-HCI buffer and incubated at 37 °C for 30 min (rat brain) or for 10 min (guinea pig brain). The centrifugation step was repeated and the final pellets were resuspended in 5 volumes of 50 mM Tris-HCI buffer (pH 7.4) containing 0.32 M sucrose to give a protein concentration of 4 - 6 mg/ml. Protein concentration was determined by the method of Bradford using bovine serum albumin as standard.
(§5) Binding experiments were performed in 50 mM Tris-HCI buffer (pH 7.4) in a final volume of 1 ml containing 0.3 - 0.5 mg protein and different concentrations of the compounds. […] Guinea pig brain membranes were incubated with [^3H]U69,593 (30 min, 30 °C). Non-specific binding was determined in the presence of 10 µM unlabeled naloxone. […] Inhibition constant (Ki) values were calculated from competition binding curves using GraphPad Prism (San Diego, CA, USA) program. The values are expressed as the mean ± S.E.M of 2-4 independent experiments, each performed in duplicate.
(§6) The morphinan-6-one compounds of the present invention were evaluated in in vitro receptor binding assays for their interaction abilities with µ, δ and k opioid receptors. […] The affinities of the compounds at k opioid receptors were determined by displacement of [^3H]U69,593 using guinea pig brain membranes.

Assay [7] has as its target T4, δ opioid receptors (Rattus norvegicus, UniProt P33533).
T4 construct: Membrane fractions were prepared from Sprague-Dawley rat or guinea pig brains; from tissue; host or cells: Sprague-Dawley rat brain (without cerebella) membranes
Description: Opioid receptor binding assay, [3H][Ile5,6]deltorphin II, rat brain membranes. Also on record: species or system Sprague-Dawley rat. The procedure: as §4, §5, §6

Assay [8] addresses T5, k opioid receptors (Cavia porcellus, UniProt P41144).
T5 construct: Membrane fractions were prepared from Sprague-Dawley rat or guinea pig brains; from tissue; host or cells: guinea pig brain (without cerebella) membranes
Kind of assay: Opioid receptor binding assay, [3H]U69,593, guinea pig brain membranes. The procedure: as §4, §5, §6

Assay [9] deals with frontal cortex synaptosomes. Kind of assay: ACh release from synaptosomes (15 mM K+-evoked [3H]-ACh release, superfusion). It counts as cell-based, male Sprague Dawley rats. The conditions noted are these: 15 mM K+. The procedure:
Preparation of synaptosomes: synaptosomes were prepared from brain frontal cortex of male Sprague Dawley rats (4 months old). The frontal cortex was rapidly dissected on ice and homogenized in 40 volumes of 0.32 M sucrose buffered at pH 7.4 with 0.01 M sodium phosphate. The homogenate was centrifuged at 1,000 g for 5 min. The crude synaptosomal pellet was obtained by centrifugation of the supernatant at 15,000 g for 20 min and was resuspended in 5 ml basal medium (125 mM Nacl, 3 mM KCI, 1.2 mM MgS04, 1.2 mM CaCl2, 1.0 mM NaH2PO4, 22 mM NaHCO3 and 10 mM glucose) which had been gassed with 95% O2 - 5% CO2 at 37 °C, pH 7.2 - 7.4.
Superfusion protocol: The synaptosomal suspension was incubated with [^3H]-choline (0.03 µM, 17.5x10^6 Bq/g) for 15 min at 37 °C. Then, the suspension was diluted (1:8) and aliquots were applied on filters in a continuous superfusion system with parallel chambers maintained at 37 °C. The media used for superfusion were basal medium and 15 mM K^+-containing stimulation medium. Both media were supplemented with ACh (1 µM) to facilitate the effectiveness of an allosteric potentiating ligand at the nicotine receptor and with atropine (0.1 µM) to block M2 presynaptic receptors. Synaptosomes were superfused with basal medium for 30 min to reach a constant outflow of [^3H]-ACh. Under these experimental conditions, the radioactivity released consisted largely of newly synthesized [^3H]-ACh. The K^+-stimulated release of [^3H]-ACh was determined in 2 subsequently collected fractions: 6 min basal release (superfusion with basal medium) and 6 min K^+-evoked release (superfusion for 1.5 min with 15 mM K^+-containing medium followed by […] basal medium). The test compounds galantamine, 4 and 2 were present in the superfusion medium concomitantly with 15 mM K^+ (for 1.5 min). Basal release of [^3H]-ACh (continuous superfusion with basal medium) was determined by collection of a 6 min sample followed by four subsequent 2 min samples. Aliquots of samples were mixed with scintillation liquid and the radioactivity quantified with a scintillation counter. The radioactivity bound to the filters was also measured.
Statistical analysis: The amount of [^3H]-ACh released in each sample was calculated as fraction of total synaptosomal tritium at the start of the respective collection period (tritium in the sample / sum of tritium in the respective fractions and in the synaptosomes on the filter). K^+-evoked release was expressed as percentage of basal release rate. Each n=1 represents the mean of an experiment with one synaptosomal preparation in at least 3 superfusion chambers. Statistical significance of group variances was calculated by one way ANOVA followed by Bonferroni's test.

Assay [10] addresses T6, K receptor (Cavia porcellus, UniProt P41144).
T6 construct: Membrane fractions were prepared from Sprague-Dawley rat or guinea pig brains; from tissue; host or cells: guinea pig brain (without cerebella) membranes
It is filed as biochemical, guinea pig.

Assay [11] relates to C57BL/6N female mice. Description: Object recognition task. As to conditions: normal mice, 0.03 µmol i.c.v.
The test system of assay [12] is C57BL/6N female mice. Description: T-maze continuous alternation. The conditions noted are these: normal mice.

T2 sequence (P33535 whole entry): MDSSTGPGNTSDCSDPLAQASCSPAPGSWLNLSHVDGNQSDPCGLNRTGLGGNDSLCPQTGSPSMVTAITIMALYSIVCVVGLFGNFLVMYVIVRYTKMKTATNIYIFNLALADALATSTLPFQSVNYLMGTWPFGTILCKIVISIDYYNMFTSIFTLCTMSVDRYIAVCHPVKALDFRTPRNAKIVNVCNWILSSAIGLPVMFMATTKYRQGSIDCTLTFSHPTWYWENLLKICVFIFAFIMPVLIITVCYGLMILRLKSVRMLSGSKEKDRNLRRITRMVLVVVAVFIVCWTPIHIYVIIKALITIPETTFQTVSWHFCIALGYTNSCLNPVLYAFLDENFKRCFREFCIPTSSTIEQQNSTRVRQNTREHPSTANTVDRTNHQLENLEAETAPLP
T4 sequence (P33533 whole entry): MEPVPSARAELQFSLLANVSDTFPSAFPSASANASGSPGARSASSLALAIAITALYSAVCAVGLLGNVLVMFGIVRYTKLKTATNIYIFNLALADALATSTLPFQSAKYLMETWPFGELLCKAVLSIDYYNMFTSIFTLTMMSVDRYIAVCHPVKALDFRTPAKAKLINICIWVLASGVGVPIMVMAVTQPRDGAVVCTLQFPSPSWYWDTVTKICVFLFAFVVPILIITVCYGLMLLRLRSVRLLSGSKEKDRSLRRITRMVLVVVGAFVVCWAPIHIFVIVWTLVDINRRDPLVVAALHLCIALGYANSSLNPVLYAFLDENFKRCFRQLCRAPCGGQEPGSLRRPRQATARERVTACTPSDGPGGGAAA
T1 sequence (P33533 whole entry): as above
T5 sequence (P41144 whole entry): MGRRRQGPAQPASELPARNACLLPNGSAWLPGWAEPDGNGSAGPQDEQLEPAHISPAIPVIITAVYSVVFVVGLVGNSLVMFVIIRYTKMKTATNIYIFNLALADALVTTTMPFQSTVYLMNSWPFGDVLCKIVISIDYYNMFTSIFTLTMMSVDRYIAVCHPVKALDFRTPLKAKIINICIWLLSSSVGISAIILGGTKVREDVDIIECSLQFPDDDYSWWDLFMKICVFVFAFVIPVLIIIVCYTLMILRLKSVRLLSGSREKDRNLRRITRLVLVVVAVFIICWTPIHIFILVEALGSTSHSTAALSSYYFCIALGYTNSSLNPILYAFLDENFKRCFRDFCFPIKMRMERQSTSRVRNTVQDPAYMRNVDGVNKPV
T6 sequence (P41144 whole entry): as above

In general, Emax refers to the size of the effect at its maximum, as opposed to the concentration needed. Turning to `C=CCN1C[C@H](C)N([C@H](c2ccc(C(=O)N(CC)CC)cc2)c2cccc(OC)c2)C[C@H]1C` [SNC 80, reference compound], in assay [1] (data not shown, read-out: Emax (% of basal activity)), the Emax came out at 137 ± 4%.

In the case of `COc1cccc2c1[C@]13CCN(CC4CC4)[C@H](C2)[C@]1(OC)CCC(=O)C3` [cyprodime, reference compound], the “effect on [35S]GTPγS binding stimulated by DAMGO” value in [2] (compound 10 µM, DAMGO 10 µM, rat brain membranes) was “significantly decreased”.

Regarding `Nc1c2c(nc3ccccc13)CCCC2` [Tacrine, tacrine, reference compound], in assay [3] (rat, in vivo), the “dose dependence of the increase in extracellular brain ACh” value is “pronounced and dose-dependent increases”.

Regarding `Oc1ccc2c3c1O[C@H]1c4[nH]c5ccccc5c4C[C@@]4(O)[C@@H](C2)N(CC2CC2)CC[C@]314` [naltrindole, reference compound], the “effect on [35S]GTPγS binding stimulated by SNC 80” value in assay [1] (compound 10 µM, SNC 80 10 µM) was “markedly decreased”.

Broadly, the IC50 is the concentration that gives 50% inhibition. `CC(C)=CCN1CCC2(C)c3cc(O)ccc3CC1C2C` (racemic) [(±)Pentazocine, reference compound]: in assay [4], the IC50 came to 54.6 ± 5.3 nM.

For the compound `CCCN1CCC[C@H](c2cccc(O)c2)C1` [(+)-3-PPP, reference compound], the IC50 in assay [5] turned out to be 68.2 ± 4.8 nM.

On to `O=CN1CC[C@]23c4c5cccc4OC2C(=O)CC[C@H]3[C@H]1C5` (some centres unmarked) [4,5-epoxy-N-formylmorphinan-6-one], for which, in assay [6], the “binding to opioid receptor µ (in words)” value is recorded as “does not bind”. Moreover, the “binding to opioid receptor δ (in words)” value in assay [7] is “does not bind”. For the same compound, the “binding to opioid receptor K (in words)” value in assay [8] was “does not bind”.

For `C=CCN1CC[C@]2(C)c3cc(O)ccc3C[C@H]1[C@H]2C` [(+)-SKF-10,047, reference compound], in assay [4], the IC50 was found to be 291 ± 14 nM.

For `C=CCN1CC[C@]23CC(=O)CC[C@@]2(OC)[C@H]1Cc1cccc(OC)c13` [4,14-dimethoxy-N-allyl-morphinan-6-one], in assay [2], the “function at the µ opioid receptor” value is reported as “antagonistic function”.

With `COc1ccc2c3c1O[C@H]1C[C@@H](O)C=C[C@@]31CCN(C)C2` [Galantamine, galantamine, reference compound], in assay [3] (Dose 0.5 µmol i.c.v.), the “0AUC120 min (% increase x min) Mean ± SEM” value is 642 ± 85 % increase x min and the “Increase in ACh release (Peak increase as % of basal output)” value is 118 ± 29 %. Further, in assay [3] (Dose 1 µmol i.c.v.), the “0AUC120 min (% increase x min) Mean ± SEM” value is 1857 ± 173 % increase x min and the “Increase in ACh release (Peak increase as % of basal output)” value is 101 ± 42 %. Also, in assay [9], the “concentration of maximal effect on stimulation-evoked ACh release” value was 1 µM.

In the case of `Oc1ccc2c3c1O[C@H]1c4[nH]c5c(c4C[C@@]4(O)[C@@H](C2)N(CC2CC2)CC[C@]314)C[C@@]1(O)[C@H]2Cc3ccc(O)c4c3[C@@]1(CCN2CC1CC1)[C@H]5O4` [Nor-BNI, reference compound], in assay [10], the “effect on [35S]GTPγS binding stimulated by U69,593” value is given as “highly effective in inhibiting”.

Consider `Cc1ccccc1NC(=N)Nc1ccccc1C` [DTG, reference compound], for which, in assay [4], the concentration for half-maximal inhibition (IC50) is 126 ± 5 nM.

For the compound `CN1[C@@H]2C[C@@H](OC(=O)[C@H](CO)c3ccccc3)C[C@H]1[C@@H]1O[C@@H]12` [Scopolamine, scopolamine, reference compound], in assay [11], the “object recognition, exploration ratio novel/familiar object” value is listed as “close to one”. For the same compound, the running time entry in assay [12] (0.033 µmol) is recorded as “only a moderate increase”; in [12] (dose series, bell-shaped curve, not shown) it was “strong increase”. The spontaneous alternation result is given as “profound decrease” in [12] (0.033 µmol) and “dose-dependent reduction” in assay [12] (dose series, not shown).

`O=CN1CC[C@]23CC(=O)CC[C@H]2[C@H]1CC1=C3C(=O)C=CC1=O` [1,4-dione-N-formylmorphinan-6-one]: the “binding to opioid receptor µ (in words)” value in [6] is listed as “does not bind”. Besides, in assay [7], the “binding to opioid receptor δ (in words)” value is “does not bind”. Further, the “binding to opioid receptor K (in words)” value in assay [8] is reported as “does not bind”.
